Results published in patent US20080108574A1, “MELANOCORTIN RECEPTOR MEDIATED MODULATION OF NEUROGENESIS” (BrainCells, Inc., priority 2006, published 2008).

Legend:
human mGlu3 = human mGlu3 (Homo sapiens, UniProt Q14832); conditions: in vitro, agonist; read-out: EC50 against human mGlu3 receptors; cited from earlier work
human mGlu2 = human mGlu2 (Homo sapiens, UniProt Q14416); conditions: in vitro, agonist; read-out: EC50 against human mGlu2 receptors; cited from earlier work
[1] = test system: human neural stem cells (hNSCs)
Description: In one non-limiting example neurogenesis, a neurogenic response, and neurodifferentiation are all measured in an in vitro assay as follows. […] Mitogen-free test media with a positive control is used for neuronal differentiation, and basal media without growth factors serves as a negative control. Neurogenesis is determined, for example, by measuring the proliferation and/or differentiation of the hNSCs in the presence of varying concentrations of test compound compared to the absence of the test compound (negative control). […] Neurodifferentiation is measured, for example, by detecting neurodifferentiation specific expression markers which methods are known in the art.
(§1) A positive control for neuronal differentiation was used along with basal media without growth factors as a negative control.
as §1

KA iGlu receptors = conditions: cited from earlier work
AMPA iGlu receptors = conditions: cited from earlier work
NMDA iGlu receptors = conditions: cited from earlier work
mGluR3 = mGluR3 (Homo sapiens, UniProt Q14832); conditions: read-out: IC50 against mGluR3; cited from earlier work
mGluR2 = mGluR2 (Homo sapiens, UniProt Q14416); conditions: read-out: IC50 against mGluR2; cited from earlier work
Group I receptors = conditions: sub-mM concentrations; cited from earlier work
Group III receptors = conditions: sub-mM concentrations; cited from earlier work

mGluR3, sequence (Q14832 23-879): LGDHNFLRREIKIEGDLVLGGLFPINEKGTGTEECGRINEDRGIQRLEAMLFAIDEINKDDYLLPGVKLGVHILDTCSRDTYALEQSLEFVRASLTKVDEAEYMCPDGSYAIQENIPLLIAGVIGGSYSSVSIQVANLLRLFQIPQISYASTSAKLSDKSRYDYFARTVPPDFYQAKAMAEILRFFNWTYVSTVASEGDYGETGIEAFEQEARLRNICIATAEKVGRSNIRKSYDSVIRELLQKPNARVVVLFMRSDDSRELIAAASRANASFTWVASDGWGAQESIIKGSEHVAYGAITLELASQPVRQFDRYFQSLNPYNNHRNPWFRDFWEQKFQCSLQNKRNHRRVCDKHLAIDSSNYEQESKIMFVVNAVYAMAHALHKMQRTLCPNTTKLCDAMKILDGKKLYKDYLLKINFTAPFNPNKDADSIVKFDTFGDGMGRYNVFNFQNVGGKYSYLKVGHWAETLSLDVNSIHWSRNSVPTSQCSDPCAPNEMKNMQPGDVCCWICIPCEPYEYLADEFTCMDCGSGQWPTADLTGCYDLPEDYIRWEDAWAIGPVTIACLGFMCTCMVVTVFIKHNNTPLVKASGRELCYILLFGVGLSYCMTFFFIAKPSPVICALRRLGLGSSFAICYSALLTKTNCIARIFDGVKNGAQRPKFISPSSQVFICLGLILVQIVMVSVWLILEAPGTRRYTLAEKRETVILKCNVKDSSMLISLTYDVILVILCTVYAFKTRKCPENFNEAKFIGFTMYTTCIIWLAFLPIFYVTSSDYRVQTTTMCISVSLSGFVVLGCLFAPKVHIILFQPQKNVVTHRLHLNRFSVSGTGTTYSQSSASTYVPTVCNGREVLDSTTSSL
human mGlu3, sequence (Q14832 23-879): as above
mGluR2, sequence (Q14416 19-872): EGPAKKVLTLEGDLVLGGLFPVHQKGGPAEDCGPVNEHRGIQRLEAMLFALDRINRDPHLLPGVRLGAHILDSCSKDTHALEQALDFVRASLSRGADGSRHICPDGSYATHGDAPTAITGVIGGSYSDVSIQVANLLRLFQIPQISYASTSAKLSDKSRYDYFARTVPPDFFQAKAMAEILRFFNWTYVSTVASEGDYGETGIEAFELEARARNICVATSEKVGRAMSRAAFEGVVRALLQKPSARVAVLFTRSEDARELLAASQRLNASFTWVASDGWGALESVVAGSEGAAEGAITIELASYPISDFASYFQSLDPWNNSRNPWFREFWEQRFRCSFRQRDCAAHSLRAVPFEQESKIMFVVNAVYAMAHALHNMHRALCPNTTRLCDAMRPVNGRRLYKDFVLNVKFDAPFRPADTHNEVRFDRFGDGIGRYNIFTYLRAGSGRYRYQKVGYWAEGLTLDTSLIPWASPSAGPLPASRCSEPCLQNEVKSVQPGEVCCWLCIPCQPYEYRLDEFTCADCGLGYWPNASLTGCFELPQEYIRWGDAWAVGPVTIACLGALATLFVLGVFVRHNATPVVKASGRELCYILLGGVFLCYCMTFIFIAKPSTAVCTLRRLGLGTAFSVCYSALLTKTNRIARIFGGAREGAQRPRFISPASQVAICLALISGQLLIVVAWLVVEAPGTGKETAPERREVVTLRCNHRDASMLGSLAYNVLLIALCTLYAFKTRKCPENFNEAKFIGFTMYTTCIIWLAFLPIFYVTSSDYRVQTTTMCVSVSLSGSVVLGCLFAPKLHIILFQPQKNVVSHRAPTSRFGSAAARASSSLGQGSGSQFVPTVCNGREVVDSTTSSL
human mGlu2, sequence (Q14416 19-872): as above

Which EC50 (human mGlu3) does the source give for `N[C@@]1(C(=O)O)CO[C@H]2[C@H](C(=O)O)[C@H]21` [LY379268, (−)-2-Oxa-4-aminobicyclohexane-4,6-dicarboxylic acid] here?
Its EC50 is less than 0.01 µM.

And the EC50 (human mGlu2)?
Its EC50 is less than 0.01 µM.

Which “effect on neuronal differentiation” value ([1]; hNSCs, dose response, TUJ-1 staining) does the source give for `CCCC[C@H](NC(C)=O)C(=O)N[C@H]1CC(=O)NCCCC[C@@H](C(=O)O)NC(=O)[C@H](Cc2c[nH]c3ccccc23)NC(=O)[C@H](CCCNC(=N)N)NC(=O)[C@@H](Cc2ccccc2)NC(=O)[C@H](Cc2c[nH]cn2)NC1=O` [PT-141, bremelanotide] here?
Its value is “promoted neuronal differentiation”.

And the EC50 ([1]; read-out: EC50, neuronal differentiation, hNSCs, percent of neuronal positive control, basal media values subtracted)?
Its EC50 is 0.2 µM.

With `N[C@](CC1c2ccccc2Oc2ccccc21)(C(=O)O)[C@H]1C[C@@H]1C(=O)O` [LY341495, (2S)-2-amino-2-(1S,2S-2-carboxycycloprop-1-yl)-3-(xanth-9-yl)propanoic acid] as the compound, how does the “activity against KA iGlu receptors” value (KA iGlu receptors) read?
The value was “substantially inactive”.

And the “activity against AMPA iGlu receptors” value (AMPA iGlu receptors)?
Its value is “substantially inactive”.

And the “activity against NMDA iGlu receptors” value (NMDA iGlu receptors)?
Its value is “substantially inactive”.

Which results are given for `NC1(C(=O)O)CCc2cc(P(=O)(O)O)ccc21` (racemic) [APICA, (RS)-1-amino-5-phosphonoindan-1-carboxylic acid]?
IC50 (mGluR3): ~30 µM; IC50 (mGluR2): ~30 µM; activity against Group I receptors (Group I receptors): no appreciable activity; activity against Group III receptors (Group III receptors): no appreciable activity

Which neurogenic activity ([1]; in assays as disclosed herein) does the source give for `Clc1ccc2c(c1)N=C(N1CCNCC1)c1ccccc1N2` [N-desmethylclozapine] here?
Its neurogenic activity is “highly neurogenic”.
